# In US20040044304A1, “Local drug delivery using photosensitizer-mediated and electromagnetic radiation enhanced vascular permeability” (priority 2002, published 2004):
# “And” between values parts separate entries of the source, which are not always exact repeats. Equal values may be shown once. Marks after values point to notes of the source that are not given here.
# Test system: blood vessels and tissue within region of irradiation
# Test: Quantitation of FITC-Dextran or TRITC-Dextran fluorescence in blood vessels and tissue (method of Brunner et al.)
# Type: in vivo, mice of strain C3H
# Conditions: for Fluorecence intensity, Tissue, Baseline / Fluorecence intensity, Vessel, Baseline: prior to photodynamic treatment and probe
# Description: At varying time points following the photodynamic activation of MRV6401 or SnET2, a total volume of 0.1 ml of either FITC-Dextran or TRITC-Dextran (obtained from Sigma Scientific, PO Box 14508, St. Louis, Mo., 63178, USA) was administered via the i.v. tail vein route. […] No. FD-2000s) or of molecular weight 150 kD (Sigma Cat. No. FD-150s), and the TRITC-Dextran solution was of molecular weight 155 kD (Sigma Cat. No. T1287). Prior to use, the dextrans were suspended in sterile 5% dextrose in water to a final concentration of 5% weight:volume. In all cases, a total volume of 0.1 ml of the […] solution was administered. The time of administration and the molecular weight of the various dextrans that were injected were as described in Table 6. In some animals the vascular permeability was determined 1-60 minutes following the completion of light irradiation using a dextran probe labeled with either FITC or TRITC, which was then followed 24 hours later by determination using a probe labeled with the other (opposite) fluorescent molecule. That is, if FITC was used immediately following irradiation, TRITC was used 24 hours later, and vice versa. To visualize the fluorescence emitted from the FITC-Dextrans, the Leitz Ploemopak L2 cube (Cat. No. 513-420, E. Leitz Inc., Rockleigh, N.J., 07647, USA) was used. This filter cube was fitted with a BP 450-490 (450 nm-490 nm band pass) excitation filter, the RKP 510 long pass dichroic mirror and a BP 525/20 (525±10 nm) band pass barrier filter. To visualize the fluorescence emitted from the TRITC-Dextrans, the Leitz Ploemopak N2 cube (Cat. No. 513-609, E. Leitz Inc., Rockleigh, N.J., 07647, USA) was used. This filter cube was fitted with a BP 530-560 (530 nm-560 nm band pass) excitation filter, the RKP 580 long pass dichroic mirror and the LP 580 (580 nm long pass) barrier filter. The spectral characteristics of the filters in the L2 and N2 cubes were such that in animals that were injected with both FITC- and TRITC-Dextran (see Table 6), there was no fluorescence “bleed-through” from the other fluorophore. That is, when visualizing TRITC-Dextran there was no fluorescent signal from FITC-Dextran that was present in the field. Similarly, when visualizing FITC-Dextran, there was no fluorescent signal from TRITC-Dextran that was present in the field. The quantitation of the level of either FITC-Dextran or TRITC-Dextran fluorescence in various regions of the chambers was undertaken using a minor modification of a previously described method [J. Brunner, F. Krummenaeur and H -A Lehr, “Quantification of video-taped images in microcirculation research using inexpensive imaging software” (Adobe Photoshop), Microcirculation, Vol. 7, pp 103-107, 2000]. In the studies described by Brunner et al., the imaging software utilized to quantitate the levels of fluorescence intensity in defined regions of interest within the window chamber was Adobe Photoshop. The software utilized for the studies described below was Image-Pro Plus (Media Cybernetics, 8484 Georgia Avenue, Silver Spring, Md. 20910, USA). In all other respects, the analysis undertaken below was the same as that described by Brunner et al. The level of fluorescence that was determined in both intra-vascular and extra-vascular regions using this method was directly proportional to the amount of the fluorescent labeled dextran in that region (Brunner et al., 2000).
# [1] = 155 kD TRITC-Dextran, SnET2 0.75 mg/kg i.v., green 530 nm-560 nm 225 J/cm^2, time after TRITC-Dextran administration, region of irradiation, 0.75 mg/kg
# [2] = Animal #12, 2,000 kD FITC-Dextran, MRV6401 0.05 mg/kg i.v., red 660 nm-680 nm 8 J/cm^2
# [3] = Animal #12, 2,000 kD FITC-Dextran, MRV6401 0.05 mg/kg i.v., red 660 nm-680 nm 8 J/cm^2, time after Dextran administration
# [4] = Animal #13, 155 kD TRITC-Dextran, MRV6401 0.05 mg/kg i.v., red 660 nm-680 nm 8 J/cm^2
# [5] = Animal #13, 155 kD TRITC-Dextran, MRV6401 0.05 mg/kg i.v., red 660 nm-680 nm 8 J/cm^2, time after Dextran administration
smiles,measurement,setting,value
"CCOC(=O)C1=Cc2c3nc(cc4nc(cc5[n-]c(cc6[n-]c2c(C)c6CC)c(C)c5CC)C(C)=C4CC)[C@@H](C)[C@]13CC.[Cl-].[Cl-].[Sn] (racemic) [SnET2, tin ethyl etiopurpurin]","Fluorecence intensity, Tissue, Baseline","155 kD TRITC-Dextran, SnET2 0.75 mg/kg i.v., green 530 nm-560 nm 225 J/cm^2, mean ± 1 SD of three readings, 0.75 mg/kg",30.5 ± 1.4 and 26.5 ± 0.2
same,"Fluorecence intensity, Tissue, 8 min",[1],82.9 ± 1.9 and 73 ± 2.0
same,"Fluorecence intensity, Tissue, 20 min",[1],110 ± 2.4 and 120 ± 4.4
same,"Fluorecence intensity, Tissue, 1 hr",[1],175.4 ± 3.3 and 127.9 ± 5.5
same,"Fluorecence intensity, Tissue, 24 hr",[1],196.4 ± 4.2 and 155 ± 7.1
same,"Fluorecence intensity, Vessel, 8 min",[1],72 ± 1.7 and 105 ± 3.1
same,"Fluorecence intensity, Vessel, 20 min",[1],90.6 ± 5.8 and 111 ± 2.7
same,"Fluorecence intensity, Vessel, 1 hr",[1],97.7 ± 6.2 and 134 ± 10
same,"Fluorecence intensity, Vessel, 24 hr",[1],55 ± 3.1 and 78 ± 1.5
"C=Cc1c(C)c2[n]3c1=CC1=NC(=Cc4c(C)c5c([n]4[In]3[Cl])C(=C3N=C(C=2)[C@@H](C)[C@@H]3CCC(=O)OC)CC5=O)C(CC)=C1C [MV6401, indium methyl pyropheophorbide]","Fluorecence intensity, Tissue, Baseline",[2],50 ± 1.8
same,"Fluorecence intensity, Vessel, Baseline",[2],50 ± 1.6^c
same,"Fluorecence intensity, Tissue, 10 min",[3],91.9 ± 4.4
same,"Fluorecence intensity, Tissue, 1 hr",[3],121.1 ± 2.2
same,"Fluorecence intensity, Tissue, 24 hr",[3],135 ± 6.6
same,"Fluorecence intensity, Vessel, 10 min",[3],79.1 ± 1.95
same,"Fluorecence intensity, Vessel, 1 hr",[3],83.5 ± 1.9
same,"Fluorecence intensity, Vessel, 24 hr",[3],78.9 ± 2.0
same,"Fluorecence intensity, Tissue, Baseline",[4],59.5 ± 1.87
same,"Fluorecence intensity, Vessel, Baseline",[4],56.6 ± 1.24
same,"Fluorecence intensity, Tissue, 10 min",[5],119.7 ± 1.96
same,"Fluorecence intensity, Tissue, 1 hr",[5],122.9 ± 2.6
same,"Fluorecence intensity, Tissue, 24 hr",[5],156 ± 1.49
same,"Fluorecence intensity, Vessel, 10 min",[5],182.9 ± 2.6
same,"Fluorecence intensity, Vessel, 1 hr",[5],168.7 ± 2.5
same,"Fluorecence intensity, Vessel, 24 hr",[5],46 ± 1.4
